The results in this text go back to patent publication US20250368634A1, “PHENYL AMIDE COMPOUNDS AND METHODS OF USE” (SCHRÖDINGER, INC., priority 2022, published 2025).

One assay deals with SOS1-KRas (G12C) (Homo sapiens (Human), UniProt Q07889). The assay is described as follows: SOS1-KRas (G12C) FRET Assay. It counts as binding.
SOS1-KRas (G12C), sequence (Q07889 564-1049, stated change not applied): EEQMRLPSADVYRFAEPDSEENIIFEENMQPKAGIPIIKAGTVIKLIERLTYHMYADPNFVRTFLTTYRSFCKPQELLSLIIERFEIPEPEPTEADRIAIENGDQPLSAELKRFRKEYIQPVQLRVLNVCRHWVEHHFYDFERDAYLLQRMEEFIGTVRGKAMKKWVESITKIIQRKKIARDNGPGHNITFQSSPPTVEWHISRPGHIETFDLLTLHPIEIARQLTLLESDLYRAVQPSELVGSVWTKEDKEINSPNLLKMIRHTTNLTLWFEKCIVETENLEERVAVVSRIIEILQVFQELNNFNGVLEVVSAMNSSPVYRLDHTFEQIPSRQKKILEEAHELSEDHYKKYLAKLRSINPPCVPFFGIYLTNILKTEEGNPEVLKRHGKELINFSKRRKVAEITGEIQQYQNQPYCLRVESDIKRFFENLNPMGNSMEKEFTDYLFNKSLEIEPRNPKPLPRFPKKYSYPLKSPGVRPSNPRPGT
Settings: not given
Turning to `C[C@@H](NC(=O)c1cc(-c2ccc(=O)n(C)c2)c(F)cc1NC1CCN(C)CC1)c1cccc(C(F)F)c1F` [Example 62, (R)-N-(1-(3-(difluoromethyl)-2-fluorophenyl)ethyl)-4-fluoro-5-(1-methyl-6-oxo-1,6-dihydropyridin-3-yl)-2-((1-methylpiperidin-4-yl)amino)benzamide], the half-maximal inhibitory concentration (IC50) (commonly the point on the concentration scale where inhibition reaches its midpoint) turned out to be 10.5 nM.
Still for that read-out and setting: then `C[C@@H](NC(=O)c1cc(N2C[C@@H]3C[C@H]2CO3)c(F)cc1NC1CCN(C)CC1)c1cccc(C(F)F)c1F` [Example 19, 5-((1S,4S)-2-oxa-5-azabicyclo[2.2.1]heptan-5-yl)-N—((R)-1-(3-(difluoromethyl)-2-fluorophenyl)ethyl)-4-fluoro-2-((1-methylpiperidin-4-yl)amino)benzamide], with 99.4 nM; and `C[C@@H](NC(=O)c1cc(-c2ccncc2)c(F)cc1N[C@@H]1CN2CCC1CC2)c1cccc(C(F)F)c1F` (single isomer, unassigned) [Example 59], with 25.7 nM; and `C[C@@H](NC(=O)c1cc(N2CC[C@]23CCOC3)c(F)cc1NC1CCN(C)CC1)c1cccc(C(F)F)c1F` (single isomer, unassigned) [Example 35], with 81.5 nM.
Still for that read-out and setting: under `C[C@@H](NC(=O)c1cc(N2CC[C@@]23CCOC3)c(F)cc1NC1CCN(C)CC1)c1cccc(C(F)F)c1F` (single isomer, unassigned) [Example 34] stands 112 nM; under `C[C@@H](NC(=O)c1cc(N2CCOCC2)c(F)cc1N[C@@H]1CN2CCC1CC2)c1cccc(C(F)F)c1F` [Example 16, N—((R)-1-(3-(difluoromethyl)-2-fluorophenyl)ethyl)-4-fluoro-5-morpholino-2-(((S)-quinuclidin-3-yl)amino)benzamide], 41.6 nM.
On the same count and under the same terms, then `C[C@@H](NC(=O)c1cc(N2CCOCC2)c(F)cc1N[C@H]1CN2CCC1CC2)c1cccc(C(F)F)c1F` [Example 15, N—((R)-1-(3-(difluoromethyl)-2-fluorophenyl)ethyl)-4-fluoro-5-morpholino-2-(((R)-quinuclidin-3-yl)amino)benzamide], with 12.9 nM.

Still in this assay, the particulars now being: inhibition of SOS1:KRAS interaction; 0.5 nM His10-SOS1 (res. 564-1049), 2.5 nM GST-KRAS (res. 1-169, G12C); 2 hrs at RT.
`C[C@@H](NC(=O)c1cc(C23CC(C2)C3)c(F)cc1NC1CCN(C)CC1)c1cccc(C(F)F)c1F` [Example 68, (R)-5-(bicyclo[1.1.1]pentan-1-yl)-N-(1-(3-(difluoromethyl)-2-fluorophenyl)ethyl)-4-fluoro-2-((1-methylpiperidin-4-yl)amino)benzamide]: inhibition was half-maximal at 138 nM (IC50). In other words, the sub-micromolar range.
The compound `C[C@@H](NC(=O)c1cc(C(=O)N2CCOCC2)c(F)cc1NC1CCN(C)CC1)c1cccc(C(F)F)c1F` [Example 77, (R)—N-(1-(3-(difluoromethyl)-2-fluorophenyl)ethyl)-4-fluoro-2-((1-methylpiperidin-4-yl)amino)-5-(morpholine-4-carbonyl)benzamide] had a 50% inhibitory concentration (IC50) of 240 nM. Against the preceding compound, the IC50 is about 1.7-fold higher.
`Cc1c([C@@H](C)NC(=O)c2cc(N3CCOCC3)c(F)cc2NC2CCN(C)CC2)cccc1C(F)(F)F` [Example 3, (R)-4-fluoro-N-(1-(2-methyl-3-(trifluoromethyl)phenyl)ethyl)-2-((1-methylpiperidin-4-yl)amino)-5-morpholinobenzamide] gave a 50% inhibitory concentration (IC50) of 56.9 nM.
`C[C@@H](NC(=O)c1cc(N2CC[C@]3(CCOC3)C2)c(F)cc1NC1CCN(C)CC1)c1cccc(C(F)F)c1F` (single isomer, unassigned) [Example 31] showed a 50% inhibitory concentration (IC50) of 40.4 nM.
With `Cc1c([C@@H](C)NC(=O)c2cc(N3CCOCC3)c(Cl)cc2NC2CCN(C)CC2)cccc1C(F)(F)F` [Example 13, (R)-4-chloro-N-(1-(2-methyl-3-(trifluoromethyl)phenyl)ethyl)-2-((1-methylpiperidin-4-yl)amino)-5-morpholinobenzamide], the IC50 is 67.2 nM.
In turn, `CNC(=O)c1cc(C(=O)N[C@H](C)c2cccc(C(F)F)c2F)c(NC2CCN(C)CC2)cc1F` [Example 73, (R)—N1-(1-(3-(difluoromethyl)-2-fluorophenyl)ethyl)-4-fluoro-N3-methyl-6-((1-methylpiperidin-4-yl)amino)isophthalamide] yielded an IC50 of 148 nM. This IC50 is about 2.2-fold higher than that of the compound before.
`C[C@@H](NC(=O)c1cc(-c2ccncc2F)c(F)cc1NC1CCN(C)CC1)c1cccc(C(F)F)c1F` [Example 63, (R)-N-(1-(3-(difluoromethyl)-2-fluorophenyl)ethyl)-4-fluoro-5-(3-fluoropyridin-4-yl)-2-((1-methylpiperidin-4-yl)amino)benzamide] displayed an IC50 of 14.9 nM.
Still for that read-out and setting: under `Cc1cc(-c2cc(C(=O)N[C@H](C)c3cccc(C(F)F)c3F)c(NC3CCN(C)CC3)cc2F)ccn1` [Example 64, (R)-N-(1-(3-(difluoromethyl)-2-fluorophenyl)ethyl)-4-fluoro-2-((1-methylpiperidin-4-yl)amino)-5-(2-methylpyridin-4-yl)benzamide] stands 8.3 nM; under `Cc1c([C@@H](C)NC(=O)c2cc(N3CCOCC3)ccc2NC2CCN(C)CC2)cccc1C(F)(F)F` [Example 23, (R)—N-(1-(2-methyl-3-(trifluoromethyl)phenyl)ethyl)-2-((1-methylpiperidin-4-yl)amino)-5-morpholinobenzamide], 358 nM; under `COC(=O)c1ccc(NC2CCN(C)CC2)c(C(=O)N[C@H](C)c2cccc(C(F)F)c2F)c1` [Example 78, methyl (R)-3-((1-(3-(difluoromethyl)-2-fluorophenyl)ethyl)carbamoyl)-4-((1-methylpiperidin-4-yl)amino)benzoate], 230 nM.
`C[C@@H](NC(=O)c1cc(N2CCC2)c(F)cc1N[C@@H]1CN2CCC1CC2)c1cccc(C(F)F)c1F` [Example 28, 5-(azetidin-1-yl)-N—((R)-1-(3-(difluoromethyl)-2-fluorophenyl)ethyl)-4-fluoro-2-(((S)-quinuclidin-3-yl)amino)benzamide]: the IC50 worked out at 61.3 nM.
Same read-out and setting: under `C[C@@H](NC(=O)c1cc(N2CCOCC2)c(C(F)F)cc1NC1CCN(C)CC1)c1cccc(C(F)F)c1F` [Example 79, (R)-4-(difluoromethyl)-N-(1-(3-(difluoromethyl)-2-fluorophenyl)ethyl)-2-((1-methylpiperidin-4-yl)amino)-5-morpholinobenzamide] stands 39.1 nM.
Still for that read-out and setting: under `C[C@@H](NC(=O)c1cc(N2CCC(F)(F)C2)c(F)cc1N[C@@H]1CN2CCC1CC2)c1cccc(C(F)F)c1F` [Example 26, N—((R)-1-(3-(difluoromethyl)-2-fluorophenyl)ethyl)-5-(3,3-difluoropyrrolidin-1-yl)-4-fluoro-2-(((S)-quinuclidin-3-yl)amino)benzamide] stands 88.8 nM; under `Cc1c([C@@H](C)NC(=O)c2cc(C3CCOCC3)c(F)cc2NC2CCN(C)CC2)cccc1C(F)(F)F` [Example 21, (R)-4-fluoro-N-(1-(2-methyl-3-(trifluoromethyl)phenyl)ethyl)-2-((1-methylpiperidin-4-yl)amino)-5-(tetrahydro-2H-pyran-4-yl)benzamide], 225 nM; under `C[C@@H](NC(=O)c1cc(C23CC(C2)C3)c(F)cc1N[C@H]1CN2CCC1CC2)c1cccc(C(F)F)c1F` [Example 69, 5-(bicyclo[1.1.1]pentan-1-yl)-N—((R)-1-(3-(difluoromethyl)-2-fluorophenyl)ethyl)-4-fluoro-2-(((R)-quinuclidin-3-yl)amino)benzamide], 120 nM.
On the same count and under the same terms, under `C[C@@H](NC(=O)c1cc(N2CC(F)(F)C[C@@H]2C)c(F)cc1NC1CCN(C)CC1)c1cccc(C(F)F)c1F` [Example 37, 5-((S)-4,4-difluoro-2-methylpyrrolidin-1-yl)-N-((R)-1-(3-(difluoromethyl)-2-fluorophenyl)ethyl)-4-fluoro-2-((1-methylpiperidin-4-yl)amino)benzamide] stands 138 nM; under `C[C@@H](NC(=O)c1cc(N2C3CCCC2COC3)c(F)cc1NC1CCN(C)CC1)c1cccc(C(F)F)c1F` [Example 39, 5-(3-oxa-9-azabicyclo[3.3.1]nonan-9-yl)-N-((R)-1-(3-(difluoromethyl)-2-fluorophenyl)ethyl)-4-fluoro-2-((1-methylpiperidin-4-yl)amino)benzamide], 111 nM.
`Cc1c(C#N)cccc1[C@@H](C)NC(=O)c1cc(N2CCOCC2)c(F)cc1N[C@@H]1CN2CCC1CC2` [Example 44, N—((R)-1-(3-cyano-2-methylphenyl)ethyl)-4-fluoro-5-morpholino-2-(((S)-quinuclidin-3-yl)amino)benzamide] yielded an IC50 of 210 nM.
The same measure, in the same setting: then `C[C@@H](NC(=O)c1cc(N2CCOCC2)c(C#N)cc1N[C@@H]1CN2CCC1CC2)c1cccc(C(F)F)c1F` [Example 25, 4-cyano-N—((R)-1-(3-(difluoromethyl)-2-fluorophenyl)ethyl)-5-morpholino-2-(((S)-quinuclidin-3-yl)amino)benzamide], with 7.4 nM; and `C[C@@H](NC(=O)c1cc(N2CCOCC2)c(F)cc1N[C@H]1[C@@H]2C[C@H]1CN(C)C2)c1cccc(C(F)F)c1F` [Example 18, N—((R)-1-(3-(difluoromethyl)-2-fluorophenyl)ethyl)-4-fluoro-2-(((1R,5S,6r)-3-methyl-3-azabicyclo[3.1.1]heptan-6-yl)amino)-5-morpholinobenzamide], with 17.8 nM; and `C[C@@H](CN(C)C)Nc1cc(F)c(N2CCOCC2)cc1C(=O)N[C@H](C)c1cccc(C(F)F)c1F` (single isomer, unassigned) [Example 50], with 199 nM.
Still for that read-out and setting: then `C[C@@H](NC(=O)c1cc(N2CCOCC2)c(F)cc1NC(C)(C)C#N)c1cccc(C(F)F)c1F` [Example 51, (R)-2-((2-cyanopropan-2-yl)amino)-N-(1-(3-(difluoromethyl)-2-fluorophenyl)ethyl)-4-fluoro-5-morpholinobenzamide], with 333 nM.
On the same count and under the same terms, under `C[C@@H](NC(=O)c1cc(-c2nnco2)c(F)cc1NC1CCN(C)CC1)c1cccc(C(F)F)c1F` [Example 72, (R)—N-(1-(3-(difluoromethyl)-2-fluorophenyl)ethyl)-4-fluoro-2-((1-methylpiperidin-4-yl)amino)-5-(1,3,4-oxadiazol-2-yl)benzamide] stands 11.4 nM.
